One test has as its system HCT116 cells. Briefly: MTS short-term cytotoxicity assay (72 h), HCT116. Format: cell-based, human. As to conditions: for Selective index (SI) = IC50 CCD-18co / IC50 HCT116: CCD18co vs HCT116; for IC50: Homo sapiens, read-out: HCT116 IC50. The protocol:
(§1) The short-term effect of compounds at 72 h on cell growth was studied using colorectal carcinoma cell lines with different KRAS and TP53 genotypes: human colorectal carcinoma HCT116 (mut Kras, wild-type (wt) p53), and human metastatic colorectal adenocarcinoma SW620 (mut Kras, mut p53). In parallel, we also used the immortalized human embryonic kidney cell line HEK293T (wt Kras, wt p53) and normal human colon fibroblast cells CCD18co (wt Kras, wt p53).
(§2) SW620 human colorectal adenocarcinoma cells (European Collection of Cell Cultures, ECACC, Porton Down, Wiltshire, UK), HEK293T human embryonic kidney cells (ATCC, LGC Standards, UK) HCT116 human colon carcinoma cells (ECACC), HCT116 p53(+/+) and p53(−/−) isogenic human colon cancer cells (GRCF Cell Center and Biorepository, the Johns Hopkins University, School of Medicine, Baltimore, MD, USA), were grown in Dulbecco’s modified Eagle’s medium (DMEM) supplemented with 10% fetal bovine serum, and 1% antibiotic/antimycotic (Invitrogen, Grand Island, NY, USA), CCD18co human colon fibroblasts (ATCC, CRL-1459) were grown in Minimum Essential Medium (MEM) supplemented with 10% fetal bovine serum, 1% antibiotic/antimycotic, 2 mM GlutaMAX, 0,1 mM Non-essential amino acids (NEAA) (Invitrogen) and […] Recombinant Human TNF-α (Peprotech, USA) and maintained at 37°C in a humidified atmosphere of 5% CO2.
(§3) Cell viability was evaluated by the tetrazolium dye (MTS) Short-Term Cytotoxicity Assay. […] Following 72 h of compound exposure, cell viability was evaluated using the CellTiter 96 AQueous Non-Radioactive Cell Proliferation Assay (Promega, Madison, WI, USA), using 3-(4,5-dimethylthiazol-2-yl)-5-(3-carboxymethoxyphenyl)-2-(4-sulfophenyl)-2H-tetrazolium, inner salt (MTS) as previously described [35]. Cell viability data were expressed as mean ±SD from at least three independent experiments. IC50 and IC65 values were determined using GaphPad Prism v.5.00 (GraphPad Software). In selected experiments, cell viability was also assessed by trypan blue exclusion assay, and general cell death by LDH activity from cell culture supernatants.

The test system of test [1] is SW620 cells. Briefly: MTS short-term cytotoxicity assay (72 h), SW620. As to conditions: for IC50: Homo sapiens, read-out: SW620 IC50. Type of test: cell-based. The procedure:
as §1, §2, §3

A further test has as its system CCD18co cells. Put plainly: MTS short-term cytotoxicity assay (72 h), CCD18co. Type of test: cell-based. Conditions: Homo sapiens, CCD-18Co. The protocol: as §1, §2, §3
The test system of the next test is HEK293T cells. Briefly: MTS short-term cytotoxicity assay (72 h), HEK293T. Format: cell-based, human. Conditions: for IC50: Homo sapiens, HEK-293T; for HEK293T IC65: standard errors ≤ 0.1. The procedure: as §1, §2, §3
The test system of test [2] is SW620 cells. Put plainly: Guava ViaCount assay, SW620. Format: cell-based, human. As to conditions: SW620, 72 h, IC50 and IC65 concentrations. From the text:
Subsequently, the Guava ViaCount assay was used to evaluate the effects of IQ3A compounds on cell death induction in cancer (HCT116 and SW620) and non-malignant (HEK293T and CCD18co) cells, compared to 5-FU and TMPyP4 at equitoxic concentrations (IC50 and IC65). Down-regulation of mutant KRAS expression by antisense oligonucleotides in colorectal cancer cells,[8],[30] and by a MAZ-binding oligonucleotide decoy in pancreatic cancer cells has been associated with increased apoptosis and cell growth arrest. Also, anticancer drugs, such as 5-FU and G4 stabilizers of telomeric and oncogene promoter sequences such as TMPyP4, are known to induce a generalized cell response leading to cell growth arrest and cell death by apoptosis (DNA damage response),[32], which involves activation of the pro-apoptotic transcription factor p53 among other pathways in the case of 5-FU [34]. […] The effect of TMPyP4 on SW620 was not studied, as this cell line was not sensitive to this compound up to a 20 μM concentration.
Fig 3 Exposure to IQ3A compounds induces cell death, mainly by apoptosis in HCT116 cells. […] Results are expressed as the mean percentage (%) of viable, mid-apoptotic and dead cells ± SEM, of at least three different experiments, for A. IC50, and for B. IC65 compound concentrations. a, p < 0.05; b, p < 0.01 from DMSO (vehicle control); c, p < 0.05; and d, p < 0.01 from 5-FU. […]

Another test relates to KRAS protein. Put plainly: KRAS protein steady-state expression by immunoblot. As to conditions: HCT116, 72 h, equitoxic (IC50) concentration.
A further test has as its system KRAS mRNA. Briefly: KRAS mRNA steady-state levels by Taqman Real-time RT-PCR. As to conditions: HCT116, 72 h, equitoxic concentration. In general terms: Quantitative PCR measures a nucleic acid by following its amplification.
A further test relates to KRAS gene promoter. Briefly: KRAS promoter activity Dual-Luciferase reporter assay. Type of test: cell-based, human. As to conditions: HCT116 and SW620 cells, PGL-Ras0.5, 24 h, IC50 concentrations. From the text: To validate that the mechanism of anti-proliferative activity and apoptotic induction by IQ3A compounds involves repression of KRAS gene expression as a result of the stabilization of G4-forming sequences present in the promoter, the effects of compounds on the KRAS gene promoter were directly evaluated by a luciferase reporter assay. For this purpose, we used two different size promoter constructs containing the G4 region of the KRAS gene promoter, cloned into the pGL3 Basic backbone: pGL-Ras0.5, pGL-Ras2.0, and pGL3 Basic empty (Firefly Luciferase negative control/no promoter), co-transfected together with pRL-TK (transfection efficiency normalization) into HEK293T cells, as a G4 negative control.
KRAS promotor luciferase reporters respectively harbor 500 bp and 2000 bp of the human KRAS promotor region, kindly provided by Prof. Kim Nam-Soon. pGL3 Basic empty was used as negative control, and pRL-TK simultaneously for transfection efficiency normalization and as a G4 negative control. […] Finally, 72 h after compound incubation, cells were lysed and firefly and renilla luciferase activities were measured using Dual-Luciferase Reporter Assay System (Promega). […] Twenty-four h later, cells were lysed and renilla luciferase activities were measured and expressed as above. The results are expressed as the mean ± SEM fold-change compared to DMSO exposure, from three independent experiments.
(Reporter assays use an easily measured gene product as a stand-in for the process of interest.)

The subject of the next test is KRAS21 G-quadruplex DNA. Put plainly: FRET melting assay, KRAS G-quadruplex DNA. Format: binding. Conditions: 1 μM compound; standard deviation < 0.2°C. The procedure: (§4) The capacity of compounds 1a-d, 2a-d and the standard G4 ligand TMPyP4 (Fig 1) to bind and stabilize KRAS [26] and HSP90A [27] G4 DNA structures as well as duplex DNA (T-loop) was evaluated by a Fluorescence Resonance Energy Transfer (FRET) melting assay. […] It was observed that the basicity of side chains correlates positively with thermal G4 stabilization of all DNA sequences up to an optimal pKa ~ 8.0–9.0 (Fig 2). Heterocyclic amines at the end of alkyl side chain (1b and 2b) appear to improve binding to G4s and complex stabilization compared to the di-ethylamine group (1a and 2a), which cannot be explained by differences in basicity between terminal groups. […] However, this was not observed for the isomeric pair 1a / 2a.
(§5) All oligonucleotides were purchased from Eurofins MWG Synthesis GmbH, Germany. The labeled oligonucleotides used in the FRET assays had attached the donor fluorophore FAM (6-carboxyfluorescein) and the acceptor fluorophore TAMRA (6-carboxytetramethylrhodamine): KRAS21R (5’-FAM-[…]-TAMRA-3’); HSP90A (5’- [FAM]-[…]-[TAMRA]-3’); T-Loop (5’-FAM-[…]-TAMRA-3’). Each oligonucleotide was initially diluted to a storage solution at 100 μM in nuclease free water (not DEPC-treated), purchased from Ambion Applied Biosystems UK.
(§6) The ability of IQ3A and TMPyP4 to stabilize G-quadruplex and duplex DNA sequences was investigated using a Fluorescence Resonance Energy Transfer (FRET) assay. Stock solution of the oligonucleotides sequences at 20 μM and subsequent dilutions were obtained from storage solutions diluting with K-cacodylate buffer pH = 7.4, containing 60 mM K^+ (10 mM potassium cacodylate, 50 mM KCl). The FRET probe sequences were diluted from stock to the correct concentration (0.4 μM) and then annealed by heating to 95°C for 10 min, followed by cooling to RT. Test compounds were prepared as 1 mM in 10% DMSO and 10% 1mM HCl in HPLC-grade water. The rest of the dilutions were performed using FRET buffer. Annealed DNA (50 μL) and compound solution (50 μL) were distributed across 96-well RT-PCR plates (BioRad; MJ Research, Waltham, MA, USA). Relevant controls were also performed to check for interference with the assay. Fluorescence readings were made on a DNA Engine Opticon (MJ Research) with excitation at 450–495 nm and detection at 515–545 nm, taken at intervals of 0.5°C in the range 30–100°C, with a constant temperature being maintained for 30 s prior to each reading to ensure a stable value. Experiments were performed in triplicate. Final analysis of the data was carried out with GraphPad Prism 5.0 software (GraphPad Software, Inc). The advanced curve-fitting function in GraphPad Prism was used for calculation of ΔT m values and associated standard deviations.

The test system of another test is T-Loop duplex DNA. Briefly: FRET melting assay, duplex DNA. Format: binding. As to conditions: 1 μM compound; standard deviation < 0.2°C. The procedure: as §4, §5, §6
Setting [3] is: 72 h, MTS, standard errors ≤ 0.1.

Read-outs that look alike come from different tables or passages of the source. Bounds are passed on as bounds.

As a reminder, the IC50 is the midpoint of a concentration-inhibition curve. Turning to `O=c1[nH]cc(F)c(=O)[nH]1` [5-FU, 5-fluorouracil, reference compound], the “HCT116 IC65” value with HCT116 cells (setting [3]) came out at 4.13 µM. Besides, in the test on HCT116 cells, the “Selective index (SI) = IC50 CCD-18co / IC50 HCT116” value was more than 42. The IC50 in the test on HCT116 cells (HCT-116, 72 h, MTS, standard errors ≤ 0.1) is 2.38 µM; in the test on SW620 cells [1] (SW-620, 72 h, MTS, standard errors ≤ 0.1), 5.39 µM; in the test on CCD18co cells (MTS, standard errors ≤ 0.1, read-out: CCD18co IC50), more than 100 µM; in the test on HEK293T cells (MTS, standard errors ≤ 0.1, read-out: HEK293T IC50), 2.66 µM. Moreover, the “SW620 IC65” value in the test on SW620 cells [1] (setting [3]) came to 8.32 µM. Further, in the test on HEK293T cells (MTS), the “HEK293T IC65” value amounted to 4.13 µM. In addition, the “induction of apoptosis / cell death” value in the test on SW620 cells [2] was “able to induce apoptosis in a dose-dependent manner”.
Regarding `C[n+]1ccc(-c2c3nc(c(-c4cc[n+](C)cc4)c4ccc([nH]4)c(-c4cc[n+](C)cc4)c4ccc([nH]4)c(-c4cc[n+](C)cc4)c4nc2C=C4)C=C3)cc1` [TMPyP4, reference compound], the “HCT116 IC65” value with HCT116 cells (setting [3]) turned out to be 14.21 µM. Further, the “Selective index (SI) = IC50 CCD-18co / IC50 HCT116” value in the test with HCT116 cells was 3.08. Moreover, the half-maximal inhibitory concentration (IC50) is 12.4 µM in the test on HCT116 cells (HCT-116, 72 h); more than 20 µM with SW620 cells [1] (SW-620, 72 h); 38.2 µM with CCD18co cells (read-out: CCD18co IC50); 2.97 µM with HEK293T cells (read-out: HEK293T IC50). In addition, in the test on KRAS protein, the “decrease of KRAS protein steady-state levels” value was approximately 80%. Also, the “SW620 IC65” value with SW620 cells [1] (setting [3]) was more than 20 µM. Further, in the test on KRAS mRNA, the “reduction of KRAS mRNA steady-state levels” value is given as “unable to reduce KRAS mRNA steady-state levels”. Further, the “reduction of KRAS promoter activity” value in the test with KRAS gene promoter is recorded as “significantly reduce KRAS promoter activity”. Also, the “HEK293T IC65” value in the test on HEK293T cells (MTS) amounted to 4.11 µM. Besides, in the test on KRAS21 G-quadruplex DNA, the “ΔTm (°C) KRAS21 1 μM” value came to 25 °C. Besides, the “ΔTm (°C) T-Loop 1 μM” value in the test on T-Loop duplex DNA amounted to 16 °C.

Values taken from article PMC4449006, “Targeting KRAS Oncogene in Colon Cancer Cells with 7-Carboxylate Indolo[3,2-b]quinoline Tri-Alkylamine Derivatives” (PLoS ONE, 2015).
